Several values for one entry are separate records, joined by “and”; a condition that tells them apart may be missing. Equal entries are not always repeated. Residues, ends and D or L forms follow the SMILES beside them. *: point of attachment. Cbz = O=C(OCc1ccccc1)*
Columns and labels:
[1] = molecular target: T1, proteasome (chymotrypsin-like activity) of MNT1 cells (Homo sapiens, UniProt P28074); assay: Proteasome LLVY (chymotrypsin-like) activity assay on lyzates of treated MNT1 cells; type: cell-based; settings: for Proteasome activity at 72 hours, Chymotrypsin-like: MNT1 cells lyzed 72 hours after treatment, palmitic or linoleic acid 25 μM, Phaeodactylum 5 μg/ml, Mg132 120 nM where stated; for chymotrypsin-like peptidase activity of the proteasome, change in words: 72 hours after addition, MNT-1 melanocytes, FIG. 1A
T1 construct: introduce in duplicate a fixed volume of cell lyzate; endogenous in cells; host or cells: MNT1 human melanocyte line (lysate)
T1 sequence (P28074 60-263): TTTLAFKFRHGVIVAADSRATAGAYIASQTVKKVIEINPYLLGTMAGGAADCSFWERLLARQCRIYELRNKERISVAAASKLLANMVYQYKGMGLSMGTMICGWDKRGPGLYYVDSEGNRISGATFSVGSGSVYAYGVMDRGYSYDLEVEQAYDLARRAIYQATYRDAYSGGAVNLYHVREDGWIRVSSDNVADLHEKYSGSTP
Protocol: 2.1 Treatment of MNT1 Cells (Human Melanocyte Cell Lines) in Order to Assay the Proteasome and Tyrosinase Activities MNT1, 10^6 cells/dish 35 mm in diameter, in triplicate
Treatment on D1 • Linoleic acid 25 μM • Palmitic acid 25 μM • Phaeodactylum 5 μg/ml +1% BSA+Vitamin E 50 μM+Vitamin C 1 mM • Linoleic acid 25 μM • Palmitic acid 25 μM • Phaeodactylum 5 μg/ml Stirring with a magnetic bar at 37° C. for 1 hour • 2nd treatment on D4 +Cycloheximide 1 μg/ml (protein synthesis inhibitor)
+120 nM Mg132 for the assay of the tyrosinase activity. • Preparation of the lyzates after 4 hours 2 rinses with PBS (phosphate-buffered saline)
On a bed of ice; recovery in 150 μl of lysis buffer by scraping.
Freezing at […]. • Protein assay via the Bradford method • Proteasome activity assay The cells are rinsed twice with PBS and each peptidase activity of the proteasome is then determined by using a fluorogenic peptide substrate specific for each of the activities, in the presence and in the absence of a specific proteasome inhibitor, MG 132 (Leu-Leu-Leucinal). The peptide substrate products are the following: Leu-Leu-Val-Tyr-amc (LLVY-amc) for the chymotrypsin-like activity, Leu-Leu-Glu-na (LLE-na) for the post-glutamic hydrolase activity and Leu-Ser-Thr-Arg-amc (LSTR-amc) for the trypsin-like activity. The principle of the assay consists in monitoring over time the increase in fluorescence due to the release of the fluorophores aminomethylcoumarin or β-naphthylamine from the fluorogenic peptides. […]
a) LLVY activity (chymotrypsin-like) a.1—Principle • Proteasome (LLVY activity • (chymotrypsin-like)) N-Succinyl-LLVY-MCA→N-Succinyl-LLVY+MCA fluorescent Reading with a spectrofluorimeter at an excitation wavelength of 350 nm and an emission wavelength of 440 nm.
The process is performed as follows: • Into a 96-well plate, introduce in duplicate a fixed volume of cell lyzate (determined from the lowest protein concentration of the samples, which should correspond to 20 μg of protein) and make up to 100 μl with TRIS buffer. • Add 100 μl of LLVY-MCA substrate prediluted to 25 μM in the TRIS buffer (12.5 μM final). • take the spectrofluorimeter readings at an excitation wavelength of 355 nm and an emission wavelength of 460 nm with a gain of 40, every 2 minutes for 30 minutes.
The raw results are expressed in F.U./minute, F.U. denoting the values supplied by the machine, expressed in fluorescence units.
The assay is performed on 200 μl of reaction volume containing a volume V of cell lyzate set as a function of the protein concentrations of the lyzates.
From the calibration range, the activity may be expressed as follows, in pmol of MCA released/minute/mg of protein: […]
For the assay of the proteasome activities, the cells were lyzed at 72 hours after the cell treatment, and the protein concentration was determined.

[2] = tested on: tyrosinase in MNT-1 melanocytes; assay: Anti-tyrosinase western blot of treated MNT1 cells, bands quantified; type: cell-based, human; settings: for amount of tyrosinase, change in words: 24 hours or 72 hours after treatment of MNT-1 melanocytes, FIGS. 4A and 4B; for Quantification of tyrosinase at 24 hours / Quantification of tyrosinase at 72 hours: western blot bands, control = 100 %, palmitic or linoleic acid 25 μM, Phaeodactylum 5 μg/ml, Mg132 120 nM where stated; for Quantification of tyrosinase at 24 hours: MNT1 lyzed at 24 hours; for Quantification of tyrosinase at 72 hours: MNT1 lyzed at 72 hours
Protocol: 2.2 Treatment of MNT1 in Order to Assay the Proteasome, the Ubiquitin Proteins and the Tyrosinase by Western Blotting
10^6 MNT1 cells/dish 35 mm in diameter, in quadruplicate
Treatment on D1 • Linoleic acid 25 μM • Palmitic acid 25 μM • Phaeodactylum 5 μg/ml
+1% bovine serum albumin (BSA)+Vitamin E (Vitamin E) 50 μM+Vitamin C (Vitamin C) 1 mM • Linoleic acid 25 μM • Palmitic acid 25 μM • Phaeodactylum 5 μg/ml
Preparation of the Lyzates on D2, D3 and D4
Recovery of the cell lawn in 150 μl of Laemmli 2× buffer+1% DTT (10 mM) by scraping.
Electrophoresis of the proteins is performed in a polyacrylamide minigel 1 mm to […] thick, under denaturing and reducing conditions, in batch buffer according to the Laemmli method (1970). The gels containing 12% T, 2.7% C allow separation of the low molecular weight proteins ranging from 20 to 120 kDa. The gels containing 8% T; 2.7% C allow separation of the high molecular weight proteins from 35 to 250 kDa.
Next, this membrane is placed in contact with the primary antibody diluted to the optimum concentration in PBS-T with or without 5% milk (m/v) depending on the antibody, for 1 hour with stirring at room temperature or overnight at 4° C.
Under the action of peroxidase and an amplifier, the luminol is oxidized and goes into a transient excited state. Return to the ground state takes place by emission of photons, which strike an autoradiography film placed on the membrane.
The bands are quantified by means of the Gels Analysts 3.01 software.
Starting with cell extracts of MNT-1 melanocytes cultured under these various conditions, with the protocols defined in the “Materials and methods” section, the effects of the extracts of the alga Phaeodactylum tricornutum on the amount of tyrosinase and of its activity were characterized.

[3] = tested on: tyrosinase of MNT-1 melanocytes; assay: Measurement of the tyrosinase (dopa-oxidase) activity in lyzates of treated MNT1 cells; type: cell-based, human; settings: for Tyrosinase activity at 72 hours: dopa-oxidase activity at 475 nm, MNT1 lyzed 72 hours after treatment, palmitic or linoleic acid 25 μM, Phaeodactylum 5 μg/ml, Mg132 120 nM where stated
Protocol: 2.1D: Measurement of the tyrosinase activity
The assay is based on measuring the dopa-oxidase activity of tyrosinase. The principle of the assay is based on the detection of dopachrome, which absorbs at 475 nm on FLUOstar (BMG)
Materials: • Lysis buffer • Substrate: L-DOPA (Sigma, D-9628, MW 197.2) at 10 mM in PBS, prepared extemporaneously due to the autoxidation of L-Dopa.
Human melanocytes in culture were treated with 25 μM of linoleic acid (±120 nM Mg132) or 25 μM of palmitic acid (±120 nM Mg132) or 5 μg/ml of Phaeodactylum (±120 nM Mg132) in MNT1 medium containing 1% BSA, 50 μM vitamin E and 1 mM vitamin C. The melanocytes were recovered and lyzed 72 hours after treatment. 50 μg of extract are then incubated with 1 mM of […] for one hour at 37° C. Measurement of the tyrosinase activity is performed at 475 nm every 2 minutes using a microplate reader thermostatically maintained at 37° C.
The Dopa-oxidase activity is obtained as OD/min/mg of protein. The blank is prepared with lysis buffer in the presence of L-DOPA.

[4] = tested on: tyrosinase in B16F10 cells; settings: cited from earlier work; for proteasome-dependent degradation of tyrosinase: B16F10 cells, Ando H. et al., J. Biol. Chem. (2004); for amount of melanin: melanocyte culture, previous study

**Q.** With `CC(C)C[C@@H](C=O)NC(=O)[C@H](CC(C)C)NC(=O)[C@H](CC(C)C)NC(=O)OCc1ccccc1` [Control + Mg132, Z-Leu-Leu-Leu-CHO] (Cbz-Leu-Leu-Leu-aldehyde) as the molecule, how does the “Proteasome activity at 72 hours, Chymotrypsin-like” value (“Proteasome activity at 72 hours” for short) [1] read?
**A.** 3 ± 0.3 pmol/min/mg

**Q.** What about the “amount of tyrosinase, change in words” value [2] of the same molecule?
**A.** this decrease may be reversed

**Q.** And the “Quantification of tyrosinase at 24 hours” value [2]?
**A.** 100%

**Q.** What about the “Quantification of tyrosinase at 72 hours” value [2] of the same molecule?
**A.** 100%

**Q.** And the “Tyrosinase activity at 72 hours” value [3]?
**A.** 18.35 ± 1.55 OD/min

**Q.** With `CCCCC/C=C\C/C=C\CCCCCCCC(=O)O` [Linoleic acid] as the molecule, how does the “chymotrypsin-like peptidase activity of the proteasome, change in words” value [1] read?
**A.** increase and do so significantly

**Q.** What about the “Proteasome activity at 72 hours” value [1] of the same molecule?
**A.** 6.3 ± 0.37 pmol/min/mg

**Q.** And the “amount of tyrosinase, change in words” value [2]?
**A.** significant decrease

**Q.** And the “Quantification of tyrosinase at 24 hours” value [2]?
**A.** 75% and 51%

**Q.** And the “Quantification of tyrosinase at 72 hours” value [2]?
**A.** 13% and 22%

**Q.** And the “tyrosinase activity, change in words” value ([3]; 72 hours after treatment of MNT-1 melanocytes, FIG. 5)?
**A.** significant decrease

**Q.** What about the “Tyrosinase activity at 72 hours” value [3] of the same molecule?
**A.** 9.65 ± 2 OD/min

**Q.** And the “proteasome-dependent degradation of tyrosinase” value [4]?
**A.** stimulated

**Q.** What about the amount of melanin [4] of the same molecule?
**A.** decrease

**Q.** With `CCCCCCCCCCCCCCCC(=O)O` [Palmitic acid] as the molecule, how does the “chymotrypsin-like peptidase activity of the proteasome, change in words” value [1] read?
**A.** reduced

**Q.** And the “Proteasome activity at 72 hours” value [1]?
**A.** 3 ± 0.37 pmol/min/mg

**Q.** What about the “Quantification of tyrosinase at 24 hours” value [2] of the same molecule?
**A.** 135% and 127%

**Q.** And the “Quantification of tyrosinase at 72 hours” value [2]?
**A.** 62% and 88%

**Q.** And the “Tyrosinase activity at 72 hours” value [3]?
**A.** 18.75 ± 1.9 OD/min

**Q.** What about the “proteasome-dependent degradation of tyrosinase” value [4] of the same molecule?
**A.** reduced

**Q.** What about the amount of melanin [4] of the same molecule?
**A.** inverse effect

Source: patent US8372408B2, “Use of Phaeodactylum algae extract for depigmenting the skin” (LVMH Recherche, priority 2007, dated 2013)
